Target: T1, hCARM1 (Homo sapiens, UniProt Q86X55)
T1 construct: evaluate whether the cloned full-length hCARM1 had methylating activity; made in house; host or cells: baculovirus infected insect cells
T1 sequence (Q86X55 1-608): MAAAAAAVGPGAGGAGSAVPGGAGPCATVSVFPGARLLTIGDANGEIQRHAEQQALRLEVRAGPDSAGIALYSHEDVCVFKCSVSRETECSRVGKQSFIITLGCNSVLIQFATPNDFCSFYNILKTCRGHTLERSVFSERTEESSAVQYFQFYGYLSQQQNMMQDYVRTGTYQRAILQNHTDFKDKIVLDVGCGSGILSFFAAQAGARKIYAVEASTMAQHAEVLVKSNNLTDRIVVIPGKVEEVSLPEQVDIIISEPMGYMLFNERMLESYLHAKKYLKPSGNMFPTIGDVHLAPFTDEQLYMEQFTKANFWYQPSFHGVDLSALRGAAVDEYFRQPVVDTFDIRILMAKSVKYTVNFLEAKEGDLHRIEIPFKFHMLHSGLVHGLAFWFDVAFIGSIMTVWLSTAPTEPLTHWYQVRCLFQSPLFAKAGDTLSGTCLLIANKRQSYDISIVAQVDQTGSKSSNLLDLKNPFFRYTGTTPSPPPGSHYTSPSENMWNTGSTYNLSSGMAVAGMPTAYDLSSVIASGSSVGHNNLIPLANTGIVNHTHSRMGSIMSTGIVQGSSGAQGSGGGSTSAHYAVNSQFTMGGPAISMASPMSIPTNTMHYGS
Experiment: Methylation assay: inhibition of hCARM1 mediated methylation of Histone H3
Type: biochemical
Settings: Histone H3 substrate, 30° C. for 1 hr, SDS-PAGE/film
Protocol: Methylation assay protocol: Reactions were performed in IX methylation buffer containing 20 mM Tris.HCl, pH 8.0, 200 mM NaCl and 0.4 mM EDTA. Reactions were assembled with 2.5 ug of Histone H3 and increasing amounts of hCARM1 (0.25 ug, 0.5 ug, 1.25 ug, 2.5 ug, 3.75 ug, 5 ug, or 7.5 ug). A mock reaction where hCARM1 was omitted was used as the negative control. Reactions were incubated at 30° C. for 1 hr. prior to loading on a 10-20% gradient SDS-PAGE. The gel was fixed, dried and exposed to film.
A methylation reaction was performed in order to evaluate whether the cloned full-length hCARM1 had methylating activity. Mouse CARM1 has been previously shown to specifically methylate Histone H3 in vitro and in vivo.

- inhibition of hCARM1 mediated methylation: effectively inhibited
SMILES: N[C@@H](CCS)C(=O)O [homocysteine]
